Experiments:
Adenosine deaminase = target: T1, Adenosine deaminase (Homo sapiens, UniProt P00813)
T1 sequence (P00813 whole entry): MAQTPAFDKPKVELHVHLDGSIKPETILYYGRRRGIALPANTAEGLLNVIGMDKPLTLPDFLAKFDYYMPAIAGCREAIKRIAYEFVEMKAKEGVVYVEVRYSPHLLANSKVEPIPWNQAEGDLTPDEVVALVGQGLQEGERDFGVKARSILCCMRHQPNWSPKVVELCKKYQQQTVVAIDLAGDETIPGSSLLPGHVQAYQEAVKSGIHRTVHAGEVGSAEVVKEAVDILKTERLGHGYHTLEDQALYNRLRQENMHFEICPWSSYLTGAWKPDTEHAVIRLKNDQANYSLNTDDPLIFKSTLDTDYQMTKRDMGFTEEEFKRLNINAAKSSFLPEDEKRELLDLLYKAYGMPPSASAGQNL
Description: Inhibition constant against human adenosine deaminase was determined

[1] = Pharmacokinetic property (AUC) was determined after po administration of 32 mg/kg in mice; format: ADME, organism-based; parameters: dose 32 mg/kg, route oral; conditions: mouse, in vivo
[2] = Pharmacokinetic property (AUC) was determined after ip administration of 32 mg/kg in mice; format: ADME, organism-based; parameters: dose 32 mg/kg, route intraperitoneal; conditions: mouse, in vivo
[3] = Pharmacokinetic property (C(max)) was determined after ip administration of 32 mg/kg in mice; format: ADME, organism-based; parameters: dose 32 mg/kg, route intraperitoneal; conditions: mouse, in vivo
[4] = Pharmacokinetic property (C(max)) was determined after po administration of 32 mg/kg in mice; format: ADME, organism-based; parameters: dose 32 mg/kg, route oral; conditions: mouse, in vivo

Structure (SMILES)	Ki (Adenosine deaminase)	AUC [1]	AUC [2]	Cmax [3]	Cmax [4]
COC(=O)c1cn(C(CO)c2ccccc2)cn1 (stereo not given)	> 100 µM	–	–	–	–
OCc1cn(C(CO)c2ccccc2)cn1 (stereo not given)	> 100 µM	–	–	–	–
O=C(O)c1cn(C(CO)c2ccccc2)cn1 (stereo not given)	> 100 µM	–	–	–	–
CCCCCC[C@@H]([C@@H](C)O)n1cnc2c(N)ncnc21 [EHNA]	0.0037 µM	1000 ng·h/mL	2200 ng·h/mL	5900 ng/mL	1100 ng/mL
NC(=O)c1cn(C(CO)CCc2ccccc2)cn1 (stereo not given) [FR-221647]	–	29900 ng·h/mL	29600 ng·h/mL	25200 ng/mL	15200 ng/mL

The next lines start with the values.

Ki (Adenosine deaminase)	AUC [1]	AUC [2]	Cmax [3]	Cmax [4]	Structure (SMILES)
54 µM	–	–	–	–	NC(=O)c1cn(C(CO)c2ccccc2)cn1 (stereo not given)
–	–	9500 ng·h/mL	12200 ng/mL	–	OC[C@H]1O[C@@H](n2cnc3c2NC=NC[C@H]3O)C[C@@H]1O [PENTOSTATIN]

Reference: ChEMBL document CHEMBL1136651, “Structure-based de novo design of non-nucleoside adenosine deaminase inhibitors” (Bioorg Med Chem Lett, 2003)
